The record followed here is article PMC12163635, “Synthetic Retinoids for the Modulation of Genomic and Nongenomic Processes in Neurodegenerative Diseases” (ACS Omega, 2025).

Assay [1] deals with Sil-15 cells containing a RARE driving a lacZ reporter. The assay can be described thus: X-Gal-based RA reporter assay (genomic response). The assay is classed as cell-based. On the set-up: genomic response Emax (±95% CI): unit not given here. The conditions noted are these: for genomic response Emax (±95% CI) / EC50: Sil-15 reporter cells; for genomic response Emax (±95% CI): absorbance at 650 nm; for genomic E max compared with ATRA / genomic EC50 compared with ATRA: nonoverlapping 95% CI; for EC50: read-out: genomic response EC50 (±95% CI), overnight, 10^–6 to 10^–14 M. From the text: Following chemical design and synthesis, the synthetic retinoid library was screened for genomic and nongenomic biological activities and compared to the response of the endogenous retinoid, ATRA. In these assays, the EC50 value represented the concentration of retinoid that gave half-maximal response (potency), while the E max value represented the maximum response achievable from the retinoid (efficacy).
The transcriptional genomic activity of the retinoids was quantified using Sil-15 cells containing a RARE driving a lacZ reporter. […] Twenty-two of the synthetic retinoids were effective in inducing genomic activity. […] In addition, the retinoids varied in their efficacies.
The Sil-15 cell line was used in the X-gal RA reporter assay described below. The cells were grown in Dulbecco’s modified Eagle’s medium (DMEM) containing 10% fetal bovine serum (FCS) (Invitrogen/Gibco), 0.6% penicillin-streptomycin (Gibco) and 0.8 mg/mL G418 sulfate (Sigma) for selection. They were maintained in a humidified atmosphere containing 5% CO2 at 37 °C. The medium was changed three times a week and the cells were passaged at 70% confluence using 0.05% trypsin-EDTA.
Sil-15 cells are F9 teratocarcinoma cells stably transfected with a plasmid containing the LacZ gene under the control of a DR5-type RA response element (RARE). The reporter cell line was used to detect the transcriptional genomic activity of ATRA and other retinoids by colorimetrically quantifying the insoluble blue product generated by β-galactosidase from X-gal during the assay. The assay was performed by plating 100,000 cells per well in the 0.1% gelatin-coated 96-well plates and leaving them to attach overnight. The ATRA/retinoids dilutions ranging from 10^–6 to 10^–14 M were incubated on the reporter cells overnight at 37 °C, in 5% CO2. A standard curve of ATRA was included in each experiment to ensure the reproducibility of the results between assays performed on different days. All the assays for ATRA as well as the retinoids were quantified in triplicate. Serial dilutions of retinoids were prepared from a stock solution under red/orange light. The stock solutions prepared in DMSO for each retinoid varied depending on the solubility of each compound. Each stock was stored at −20 °C and protected from light. The next day, Sil-15 cells were washed with PBS, fixed with 1% glutaraldehyde and 1 mM MgCl2 solution for 15 min, and developed in X-gal developing solution (0.2% X-Gal, 1 mM MgCl2, 3.3 mM potassium ferricyanide and 3.3 mM potassium ferrocyanide in PBS). The plates were read on an E max microplate reader (Molecular Devices) at 650 nm.
(§1) All data are presented as mean ± SEM of three independent experiments with biological triplicates. Statistical analyses were performed in Microsoft Office Excel 2019 or GraphPad Prism 7.0c version (Prism, GraphPad Software, San Diego, CA). Neurite outgrowth data were analyzed by one-way ANOVA with Newman-Keuls multiple comparison test as appropriate; P value <0.05 was considered statistically significant. *P < 0.05, **P < 0.01. Data for X-Gal and ERK1/2 phosphorylation were analyzed using sigmoidal dose–response analysis of log (agonist) versus response curve (stimulation).

Assay [2] concerns ERK1/2 phosphorylation in SH-SY5Y cells. The assay can be described thus: ERK1/2 phosphorylation (nongenomic response), AlphaScreen SureFire. It counts as cell-based, human. The conditions noted are these: for EC50: Homo sapiens, read-out: nongenomic response EC50 (±95% CI); for EC50 / nongenomic response Emax (±95% CI) / induction of ERK1/2 phosphorylation (nongenomic activity): SH-SY5Y cells, 1 h; for nongenomic E max compared with ATRA: nonoverlapping 95% CI. The method, then: After screening the retinoids for genomic responses, they were tested for their nongenomic ability to rapidly phosphorylate ERK1/2 in the SH-SY5Y cell line. ATRA is known as a potent activator of ERK1/2 − and was used as the standard for comparison. […] The efficacies of the remaining seven retinoids were similar to ATRA.
(§2) SH-SY5Y cell line as used in ERK phosphorylation and neurite outgrowth assays described below. The cells were grown in DMEM containing 10% FCS at 37 °C with 5% CO2. The medium was changed three times a week and the cells were passaged at 70% confluence using 0.05% trypsin-EDTA.
To quantify ERK1/2 phosphorylation, SH-SY5Y cells (100,000 cells/well) were plated onto 96-well plates and serum-starved for 24 h in DMEM. Cells were assayed in serum-free DMEM and stimulated for 60 min at 37 °C in a humidified atmosphere. Retinoids were tested at concentrations ranging from 10 to 4 to 10–11 M and at a final concentration of 0.1% DMSO. At the end of the assay, the medium was removed, and cells were lysed with lysis buffer supplied in the AlphaScreen SureFire ERK1/2 kit (PerkinElmer). The assay was performed in 384-well white Proxiplates according to the manufacturer’s instructions and using the beads supplied in the protein A general IgG detection kit (PerkinElmer). Briefly, 4 μL samples were incubated with 7 μL of the freshly prepared mixture containing donor and acceptor beads. Plates were incubated at room temperature and read with the Envision system (PerkinElmer Life Sciences) using AlphaScreen settings.
as §1

Another assay relates to SH-SY5Y cells. The assay can be described thus: Neurite outgrowth. The conditions noted are these: 5 days; for fold induction at 0.01 µM: Homo sapiens, SH-SY5Y, 120 h, 10 nM compound, in comparison to nontreated cells, read-out: fold increase in neurite outgrowth; for induction of neurite outgrowth compared with ATRA: 10 nM. It counts as cell-based, human. The method, then: Following the characterization of retinoids for their genomic and nongenomic activities, the ability of retinoids to differentiate and induce neurite outgrowth in the neuroblastoma cell line, SH-SY5Y cells, was examined (Figure ). Neurite outgrowth can be induced in this cell line by ATRA at 10 μM.
as §2
SH-SY5Y cells were plated at 10,000 cells/well in 12-well plates containing 16 mm acid-treated/poly L-lysine-coated glass coverslips. After 24 h, retinoids were added to the medium and tested at two different concentrations, 10 μM and 10 nM, with a final DMSO concentration of 0.01 or 0.0001%, respectively. The plates were incubated for 5 days at 5% CO2/37 °C. All retinoid concentrations were tested in triplicate. Cells were fixed using 4% paraformaldehyde and stained for β-III tubulin (1:1000; Sigma). For each neurite outgrowth experiment, 3 coverslips (in 3 wells) were used. ImageJ software with the NeuronJ plugin was used to quantify neurite outgrowth on stained cells in each of the 10 randomly selected images of each coverslip taken using a Nikon Eclipse E400 fluorescence microscope. The average neurite length was calculated for each image by dividing total neurite length by the total number of neurites per image.
as §1

Consider `CC1(C)CCC(C)(C)c2cc(C#Cc3ccc(C(=O)O)c(F)c3)ccc21` [Compound 13, 2-Fluoro-4-[2-(5,5,8,8-tetramethyl-5,6,7,8-tetrahydronaphthalen-2-yl)ethynyl]benzoic Acid], for which, in assay [1], the “genomic response Emax (±95% CI)” value is given as 190 (±8.2) and the “genomic E max compared with ATRA” value is given as “significantly higher E max than ATRA”. In addition, in assay [2], the EC50 came out at 2.44 nM, the “nongenomic response Emax (±95% CI)” value is 43.4 (±1.81) and the “nongenomic E max compared with ATRA” value was “E max values significantly lower than ATRA”. Moreover, in the assay with SH-SY5Y cells, the fold induction at 0.01 µM came out at 1.9.

`CC1(C)CCC(C)(C)c2cc(C#Cc3ccc(C(=O)O)cc3F)ccc21` [Compound 14, 3-Fluoro-4-[2-(5,5,8,8-tetramethyl-5,6,7,8-tetrahydronaphthalen-2-yl)ethynyl]benzoic Acid]: in assay [1], the “genomic response Emax (±95% CI)” value is 149 (±14.9), the “genomic E max compared with ATRA” value was “significantly lower E max than ATRA” and the EC50 was 0.0581 nM. Also, in assay [2], the EC50 was found to be 27.4 nM and the “nongenomic response Emax (±95% CI)” value is reported as 50.7 (±2.51). Besides, the fold induction at 0.01 µM in the assay with SH-SY5Y cells stood at 2.1.

As to `CC1(C)CCC(C)(C)c2cc(C#Cc3cc(F)c(C(=O)O)c(F)c3)ccc21` [Compound 15, 2,6-Difluoro-4-[2-(5,5,8,8-tetramethyl-5,6,7,8-tetrahydronaphthalen-2-yl)ethynyl]benzoic Acid], in assay [1], the “genomic response Emax (±95% CI)” value is 185 (±4.9) and the “genomic E max compared with ATRA” value is given as “significantly higher E max than ATRA”. In assay [2], the EC50 is 125 nM, the “induction of ERK1/2 phosphorylation (nongenomic activity)” value was “showed activity toward the nongenomic pathway”, the “nongenomic response Emax (±95% CI)” value is 76.2 (±5.47) and the “nongenomic E max compared with ATRA” value is on record as “E max values significantly higher than ATRA”. For the same compound, in the assay on SH-SY5Y cells, the fold induction at 0.01 µM was 1.7.

For the compound `CC1(C)CCC(C)(C)c2cc(C#Cc3ccc(C(=O)O)cc3Cl)ccc21` [Compound 16, 3-Chloro-4-[2-(5,5,8,8-tetramethyl-5,6,7,8-tetrahydronaphthalen-2-yl)ethynyl]benzoic Acid], in assay [1], the “genomic response Emax (±95% CI)” value is reported as 97.2 (±7.9), the “genomic E max compared with ATRA” value is recorded as “significantly lower E max than ATRA”, the “genomic EC50 compared with ATRA” value is “significantly higher EC50 values than ATRA” and the EC50 is 13.6 nM. In assay [2], the EC50 was 90.8 nM, the “nongenomic response Emax (±95% CI)” value is 36.9 (±2.77) and the “nongenomic E max compared with ATRA” value is given as “E max values significantly lower than ATRA”. Further, in the assay with SH-SY5Y cells, the fold induction at 0.01 µM was found to be 1.6.

On to `Cc1cc2c(cc1C#Cc1ccc(C(=O)O)c(F)c1)C(C)(C)CCC2(C)C` [Compound 17, 2-Fluoro-4-[2-(3,5,5,8,8-pentamethyl-5,6,7,8-tetrahydronaphthalen-2-yl)ethynyl]benzoic Acid], for which, in assay [1], the “genomic response Emax (±95% CI)” value is recorded as 170 (±9.35), the “genomic EC50 compared with ATRA” value is reported as “significantly lower EC50 than ATRA” and the EC50 stood at 0.134 nM. Also, in assay [2], the EC50 was 5.73 nM and the “nongenomic response Emax (±95% CI)” value is reported as 44.1 (±2.69). Besides, the “induction of neurite outgrowth compared with ATRA” value (“induction … compared with ATRA” below) with SH-SY5Y cells is on record as “induced neurite outgrowth but not significantly compared to ATRA”.

Consider `Cc1cc2c(cc1C#Cc1ccc(C(=O)O)cc1F)C(C)(C)CCC2(C)C` [Compound 18, 3-Fluoro-4-[2-(3,5,5,8,8-pentamethyl-5,6,7,8-tetrahydronaphthalen-2-yl)ethynyl]benzoic Acid], for which, in assay [1], the “genomic response Emax (±95% CI)” value was 140 (±12.1), the “genomic E max compared with ATRA” value was “significantly lower E max than ATRA” and the concentration for a half-maximal effect (EC50) came out at 1.38 nM. Besides, in assay [2], the EC50 was 13.1 nM, the “nongenomic response Emax (±95% CI)” value is listed as 40.1 (±1.86) and the “nongenomic E max compared with ATRA” value is given as “E max values significantly lower than ATRA”. For the same compound, the “induction … compared with ATRA” value in the assay on SH-SY5Y cells is given as “induced neurite outgrowth but not significantly compared to ATRA”.

On to `Cc1cc2c(cc1C#Cc1cc(F)c(C(=O)O)c(F)c1)C(C)(C)CCC2(C)C` [Compound 19, 2,6-Difluoro-4-[2-(3,5,5,8,8-pentamethyl-5,6,7,8-tetrahydronaphthalen-2-yl)ethynyl]benzoic Acid], for which, in assay [1], the “genomic EC50 compared with ATRA” value was “significantly lower EC50 than ATRA” and the EC50 is 0.27 nM. In addition, in assay [2], the EC50 stood at 144 nM, the “nongenomic response Emax (±95% CI)” value is on record as 77.6 (±2.92) and the “nongenomic E max compared with ATRA” value was “E max values significantly higher than ATRA”. In the assay with SH-SY5Y cells, the “induction … compared with ATRA” value is “significantly induced neurite outgrowth compared to ATRA” and the fold induction at 0.01 µM came out at 1.6.

In the case of `COc1cc2c(cc1C#Cc1cc(F)c(C(=O)O)c(F)c1)C(C)(C)CCC2(C)C` [Compound 22, 2,6-Difluoro-4-[2-(3-methoxy-5,5,8,8-tetramethyl-5,6,7,8-tetrahydronaphthalen-2-yl)ethynyl]benzoic Acid], in assay [1], the “genomic response Emax (±95% CI)” value was 155 (±10.6), the “genomic E max compared with ATRA” value is on record as “significantly lower E max than ATRA” and the EC50 was 0.146 nM. Also, in assay [2], the EC50 was 3.37 nM and the “nongenomic response Emax (±95% CI)” value is on record as 71.2 (±3.9). Besides, in the assay on SH-SY5Y cells, the “induction … compared with ATRA” value was “induced neurite outgrowth but not significantly compared to ATRA”.

With `CC1(C)CCC(C)(C)c2cc(C#Cc3ccc(C(=O)O)cn3)ccc21` [Compound 23, 6-[2-(5,5,8,8-Tetramethyl-5,6,7,8-tetrahydronaphthalen-2-yl)ethynyl]pyridine-3-carboxylic Acid], in assay [1], the “genomic response Emax (±95% CI)” value is given as 210 (±8.45) and the “genomic E max compared with ATRA” value is recorded as “significantly higher E max than ATRA”. In assay [2], the EC50 is 23.9 nM, the “induction of ERK1/2 phosphorylation (nongenomic activity)” value was “showed activity toward the nongenomic pathway” and the “nongenomic response Emax (±95% CI)” value is listed as 85.7 (±9.23). In the assay with SH-SY5Y cells, the “induction … compared with ATRA” value was “significantly induced neurite outgrowth compared to ATRA” and the fold induction at 0.01 µM stood at 1.9.
